Patent US20060253078A1, “Method of treating skin disorders with stratum corneum piercing device” (priority 2005, published 2006)

Experiment: In vitro electrode-salicylic acid compatibility (color change of test solution)
Format: physicochemical
Settings: for Solution color change: 1.5% salicylic acid in 50% ethanol/50% water, cathode Platinum
Procedure: The following experiment was conducted to determine the compatibility of electrodes with salicylic acid. A pair of test electrodes was immersed in 5 ml of 1.5% salicylic acid solution (solvent 50% ethanol/50% water). A pre-determined voltage was applied to the electrodes (by connecting the electrodes to a battery or batteries) for certain length of time as indicated in Table 3. Observations were made on color change of the test solution.

## O=C(O)c1ccccc1O [salicylic acid]
Anode Platinum, 3 V, 10 min
  Solution color change: Colorless → yellow
Anode Platinum, 9 V, 10 min
  Solution color change: Colorless → brown
Anode Zinc, 1.5 V, 10 min
  Solution color change: No color change
Anode Zinc, 3 V, 10 min
  Solution color change: No color change
Anode Zinc, 9 V, 30 min
  Solution color change: No color change
Platinum anode
  Discoloration of the solution (compatibility with salicylic acid): resulted in discoloration
Zinc anode, during passage of electric current
  Discoloration of the solution (compatibility with salicylic acid): no discoloration
